Structures can show the parent of a compound that is named as a salt.

For assay [1], the system named is Jurkat cells. In words: Total cellular NAD+ level after MNNG-induced depletion (NAD/NADH Glo Assay), Jurkat cells. The assay is classed as cell-based. Particulars: for increase of NAD+ level: Jurkat cells, 100 μM MNNG 30 min; for % NAD+ Repletion: Jurkat, MNNG 100 μM, compound 1 mM.
Assay [2] concerns HEPG2 cells. In words: Total cellular NAD+ level after MNNG-induced depletion (NAD/NADH Glo Assay), HEPG2 cells. The class given is cell-based. Particulars: HEPG2, MNNG 100 μM, compound 1 mM.

For `O=C(c1cc(Cc2n[nH]c(=O)c3ccccc23)ccc1F)N1CCN(C(=O)C2CC2)CC1` [olaparib, reference compound], the “increase of NAD+ level” value in assay [1] (then olaparib 5 nM without NR for 3.5 hr) is on record as 8%.
As for `NC(=O)c1ccc[n+]([C@@H]2O[C@H](CO)[C@@H](O)[C@H]2O)c1` [NR, nicotinamide riboside], the “increase of NAD+ level” value in assay [1] (then NR 100 μM without olaparib for 3.5 hr) came to 43%.
Consider `COC(=O)CCC(=O)OC[C@H]1O[C@@H]([n+]2cccc(C(N)=O)c2)[C@H](O)[C@@H]1O` [MP-43, 3-Carboxamide-1-((2R,3R,4S,5R)-3,4-dihydroxy-5-(((4-methoxy-4-oxobutanoyl)oxy)methyl)tetrahydrofuran-2-yl)pyridin-1-ium trifluoroacetate], for which the entries for the “% NAD+ Repletion” value in assay [2] and in assay [1] were 31.1% and 12.9%, respectively.
The matching figures for `NC(=O)c1ccc[n+]([C@@H]2O[C@H](COC(=O)CCC(=O)O)[C@@H](O)[C@H]2O)c1` [MP-42, 3-Carboxamide-1-((2R,3R,4S,5R)-5-(((3-carboxypropanoyl)oxy)methyl)-3,4-dihydroxytetrahydrofuran-2-yl)pyridin-1-ium trifluoroacetate]: 23.7% and 8.2%.

Values taken from US11286274B2, “Nicotinamide riboside derivatives and their uses” (MitoPower LLC, priority 2017, dated 2022).
